For this assay, the system named is RAW264.7 cells. As to the kind of experiment: Prostaglandin E2 generation by crude enzyme fraction of RAW264.7 cells pre-treated with sample and LPS. The note with it: cells treated with 200 μl of 10 mM sample per 20 ml, 5 hours before LPS. It is filed as cell-based. Here is the method: (1) RAW264.7 cells (ATCC TIB 71) were suspended in Dulbecco's modified Eagle's medium (Bio Whittaker, 12-604F) containing 10% fetal calf serum (Gibco) at a concentration of 1×10^6 cells/ml. 20 ml of the suspension was added to a 10-cm Petri dish and the dish was incubated at 37° C. overnight in the presence of 5% CO2. 200 μl of a solution containing agarohexaose or DGE (obtained in Example 15-(2) below) at a concentration of 10 mM in water was added to the dish. The dish was incubated for 5 hours. 200 μl of a solution containing lipopolysaccharide (LPS, Sigma, L-2012) at a concentration of 100 μg/ml in water was added thereto. The dish was incubated for additional 12 hours. As a control, 200 μL of water was added in place of the sample. The cells were recovered by detaching the cells from the plate using a scraper and suspended in 0.1 M tris buffer (pH 8.0) containing 1 μg/ml pepstatin A (Sigma, P5318), 1 μg/ml leupeptin (Sigma, L2884) and 1 mM phenylmethylsulfonyl fluoride (Nacalai Tesque, 273-27). The cell membrane was destroyed by sonication. A supernatant collected by centrifugation was used as a crude enzyme fraction. The content of protein in the crude enzyme fraction was determined using Micro BCA Protein Assay Reagent (a product of Pierce sold by Takara Shuzo, P7411). 2.5 μL of 200 mM aqueous solution of glutathione (Nacalai Tesque, 170-50), 2.5 μL of a suspension containing L-adrenaline (Nacalai Tesque, 010-04) at a concentration of 200 mM in water, and 1 μL of 3 mM solution of arachidonic acid (Cayman, 90010.1) or 1 μL of 100 μg/mL solution of prostaglandin H2 (Cayman, 17020) were added to 100 μL of the sample from the crude enzyme fraction prepared as described above. The mixture was reacted at 37° C. for 30 minutes. The reaction was stopped by heating at 100° C. for 2 minutes. The content of prostaglandin E2 in the reaction mixture was measured using Prostaglandin E2 ELISA Kit (Neogen, 404110).

On to `OCC1OC(OC2C3COC2C(O)C(OC2C(O)C(CO)OC(OC4C5COC4C(O)C(OC4C(O)C(CO)OC(OC6C7COC6C(O)C(O)O7)C4O)O5)C2O)O3)C(O)C(O)C1O` (centres unmarked) [Agarohexaose, agarohexaose], for which the “production of prostaglandin E2, arachidonic acid added” value (FIG. 13) is given as “suppressed as compared with the control”. Further, for the setting “FIG. 14”, the “production of prostaglandin E2, prostaglandin H2 added” value was “suppressed as compared with the control”.
